Assay results taken from patent US20030045524A1, “Alpha-2-adrenergic agonist/fatty acid compositions” (priority 2001, published 2003).
Where two headings read alike, the source gives them in different places.

What was measured:
Intra Ocular Pressure = conditions: ion pair formulation of 0.131% bromonidine and 0.126% linoleic acid
Excerpt: The complex is an ion pair formulation of 0.131% bromonidine and 0.126% linoleic acid.

[1] = tested on: Rabbit Intraocular Pressure; conditions: 0.2% complex; for INTRAOCULAR PRESSURE: mean, n=8
Description: In this study, the animals were placed into three groups consisting of a mix of age, size and sex.
One group of animals (both sexes) was used per screening study. The test compound (20 L of 0.2% bromonidine-linoleic acid ion pair complex) was administered to the surface of the cornea using an automatic pipette or an appropriate device.
The following general procedure for administering the test compound employed in this study is presented below:
1. Make sure that the 0.25% proparacaine Opthetic5 mixture (topical local anesthetic), test compounds, and commercially available treats are available.
2. Turn on the Digilab Modular One J Pneuma Tonometer (pneumatonometer) [BioRad, Cambridge, Mass.]; it needs approximately 15 minutes to warm up. Turn on gas supply or air pump.
3. Hold probe vertically with the point tip down and press “calibration check” for “zero”.
4. Wipe the pneumatonometer probe with an alcohol swab, and inspect the tip membrane for holes.
5. Set the external calibration device (air or water manometer) to 25 mm Hg, place the pneumatonometer probe in the calibration device to ensure that it corresponded to 25 2 mm Hg.
6. Obtain a rabbit. Make sure the recording data sheets are at hand.
7. Gently restrain the rabbit via a commercial restrainer or a cotton towel. Measure the pupil diameter with the specialized ruler for each eye and record the values on the sheets provided. If the eyes are too dark to obtain a value by this method, a specialized penlight may be used. Obtain a pupil diameter measurement by shining the penlight on the cornea for one second.
8. Slide the upper eyelid up with the thumb and visually assess and score the degree of ocular surface redness. Record the value for each eye on the sheet provided.
9. Put one drop of 0.25% proparacaine Opthetic5 (50:50 mix of 0.5% proparacaine Opthetic5+Cellufresh5) on the surface of each eye. Wait one or more minutes for ophthetic to take effect.
10. Place the pnematonometer tip on one eye at the site where the curvature of the cornea is greatest. Let the probe shank travel to the black line, not the red line. Persist until a stable reading with the standard deviation below 1.0 is obtained. Repeat the procedure for the contralateral eye. Record the data. (Note: If the animal is upset by the restraint, the reading will be artificially high and cannot be used. Use gentle restraint).
11. At the end of the 0, 6, 24, 30, 48, 54, 72, 78 and 96 hour measurements, use an automatic pipette to apply 20 L of the test compound to the surface of the cornea of one eye. After the 102 hour measurements, the eyes will be washed out with Refresh5 and Prefrin5.
12. Give the animal a treat and return the animal to its cage.
13. Repeat steps 7 to 11 on the remaining animals in the group.
The following general procedure for measuring the effects of the test compound employed in this study is as follows: a reading is conducted at 0, 2, 4, 6, 24, 26, 28, 30, 48, 50, 52, 54, 72, 74, 76, 78, 96, 98, 100, and 102 hours. The pneumatonometer is calibrated before use with a manometer and the probe tip is wiped with an alcohol swab. One drop of 0.25% proparacaine Opthetic5, a corneal anesthetic, is placed on the cornea. Allow sufficient time (approximately 1 minute) for it to anesthetize the cornea before placing the probe on the eye. The eye is gently opened by the person doing the tonometer reading. The probe is placed on the cornea at the point of greatest curvature and a stable reading is obtained. The probe is held parallel to the floor and perpendicular to the line of the rabbit's sight. The reading is repeated until a reasonable reading can be obtained. The piston should be between the red and black lines or at the black line on the probe.
Values are mean S.E.M. n=8.

monkeys = conditions: average of 6 monkeys, 0.2%, scale S=0 to 4
Description: The relative sedative effects of bromonidine-linoleic acid (compound 65) were compared to saline (compound 62) and brimonidine tartrate (compound 60). This study involved cross overs and a one-week wash out in between the administration of the various compounds.
As done in a previous experiment, the following method was followed:
1. 6 trained monkeys were placed in chairs and allowed to acclimate for approximately 30 minutes.
2. Individual monkeys were brought into the “testing room” where they were allowed to adjust to the new environment for approximately 2 minutes. […] Sedation scores were recorded on an observation sheet.
3. The monkey was returned to the group of animals assigned to this study.
4. 2 baseline readings were done at T−0.5 and 0 hour. After the 0 hour reading one drop of the test compound was administered to the right eye.
5. Steps 2 & 3 were repeated at T=0.5, 1, 2, 3 and 4 hour.
6. Animals were monitored until they recover from effects of the drug.
5. Scoring of Sedation was based on the following scale:
S=0 Monkey is quiet, but slightly active.
S=1 Monkey is quiet, easy to handle for reading
S=2 Monkey is quiet, relaxed but very low in activity
S=3 Monkey is blinking eyes and yawning
8. The test compounds were coded: 62-Saline, […].
9. Test Compound Administration:
The scoring was conducted for each animal for the different test compounds. The average results are shown on table 1.

Compound: Brc1c(NC2=NCCN2)ccc2nccnc12.CCCCC/C=C\C/C=C\CCCCCCCC(=O)O
- percent change of Intra Ocular Pressure (Intra Ocular Pressure; 1 hr after administration at time 0): −10.4%
- percent change of Intra Ocular Pressure (Intra Ocular Pressure; 2 hr after administration at time 0): −16.0%
- percent change of Intra Ocular Pressure (Intra Ocular Pressure; 4 hr after administration at time 0): −09.5%
- percent change of Intra Ocular Pressure (Intra Ocular Pressure; 6 hr after administration at time 0): −09.4%
- time for which intraocular pressure in a rabbit's eye is reduced ([1]; after administration): at least 6 hours
- duration of the effect of the complex on intraocular pressure ([1]; after administration at time 6 hr): less than 18 hrs
- INTRAOCULAR PRESSURE ([1]; time 0 hr (initial, dosed after reading)): 25.8 mmHg
- INTRAOCULAR PRESSURE ([1]; time 2 hr): 17.1 mmHg
- INTRAOCULAR PRESSURE ([1]; time 4 hr): 21.1 mmHg
- INTRAOCULAR PRESSURE ([1]; time 6 hr (dosed after reading)): 23.9 mmHg
- INTRAOCULAR PRESSURE ([1]; time 24 hr (dosed after reading)): 25.6 mmHg
- INTRAOCULAR PRESSURE ([1]; time 26 hr): 19.9 mmHg
- INTRAOCULAR PRESSURE ([1]; time 28 hr): 22.9 mmHg
- INTRAOCULAR PRESSURE ([1]; time 30 hr (dosed after reading)): 23.0 mmHg
- INTRAOCULAR PRESSURE ([1]; time 48 hr (dosed after reading)): 26.5 mmHg
- INTRAOCULAR PRESSURE ([1]; time 50 hr): 20.4 mmHg
- INTRAOCULAR PRESSURE ([1]; time 52 hr): 23.4 mmHg
- INTRAOCULAR PRESSURE ([1]; time 54 hr (dosed after reading)): 24.1 mmHg
- INTRAOCULAR PRESSURE ([1]; time 72 hr (dosed after reading)): 26.8 mmHg
- INTRAOCULAR PRESSURE ([1]; time 74 hr): 21.1 mmHg
- INTRAOCULAR PRESSURE ([1]; time 76 hr): 23.9 mmHg
- INTRAOCULAR PRESSURE ([1]; time 78 hr (dosed after reading)): 25.2 mmHg
- INTRAOCULAR PRESSURE ([1]; time 96 hr (dosed after reading)): 27.9 mmHg
- INTRAOCULAR PRESSURE ([1]; time 98 hr): 20.1 mmHg
- INTRAOCULAR PRESSURE ([1]; time 100 hr): 23.9 mmHg
- INTRAOCULAR PRESSURE ([1]; time 102 hr): 25.3 mmHg

Compound: brimonidine tartrate [reference compound]
- SEDATION SCORE (monkeys; time 0 hr (baseline, before dosing)): 0.8
- SEDATION SCORE (monkeys; time 0.5 hr after one drop to right eye): 0.8
- SEDATION SCORE (monkeys; time 1 hr after one drop to right eye): 1.7
- SEDATION SCORE (monkeys; time 2 hr after one drop to right eye): 2.6
- SEDATION SCORE (monkeys; time 3 hr after one drop to right eye): 2.5
- SEDATION SCORE (monkeys; time 4 hr after one drop to right eye): 2.7
- SEDATION SCORE (monkeys; time −0.5 hr (baseline, before dosing)): 0.7
